Measurements published in patent publication US20190125745A1, “TREATMENT AND DIAGNOSIS OF CANCER” (Rgenix, Inc., priority 2014, published 2019).
Where a name gives a salt, the structure may show the parent alone.

Tested on: RCC human renal cancer cells, PANC1 human pancreatic cancer cells, H460 human lung cancer cells
Test: Trans-well matrigel invasion of renal, pancreatic and lung cancer cells
Format: cell-based
Conditions: 1 μM, 72 hours
Method: FIG. 17. Treatment with the LXR agonist GW3965 inhibits In Vitro tumor cell invasion of renal cancer, pancreatic cancer, and lung cancer.
Following serum starvation, the cells were subjected to the trans-well invasion assay using a matrigel invasion chamber system (354480, BD Biosciences). Invasion chambers were pre-equilibrated prior to the assay by adding 0.5 mL of starvation media to the top and bottom wells. Meanwhile, cancer cells were trypsinized and viable cells were counted using trypan blue. Cancer cells were then resuspended at a concentration of 1×10^5 cells/1 mL starvation media, and 0.5 mL of cell suspension, containing 5×10^4 cells, was seeded into each trans-well. The invasion assay was allowed to proceed for 24 hours at 37′C. […] Following fixation, the inserts were washed in PBS and then cut out and mounted onto slides using VectaShield mounting medium containing DAPI nuclear stain (H-1000, Vector Laboratories). The basal side of each insert was imaged using an inverted fluorescence microscope (Zeiss Axiovert 40 CFL) at 5× magnification, and the number of DAPI-positive cells was quantified using ImageJ.

O=C(O)Cc1cccc(OCCCN(Cc2cccc(C(F)(F)F)c2Cl)CC(c2ccccc2)c2ccccc2)c1 [GW3965 108, 3-[3-[N-(2-Chloro-3-trifluoromethylbenzyl)-(2,2-diphenylethyl)amino]propyloxy] phenylacetic acid hydrochloride]
tumor cell invasion in all three cancer types tested: inhibition
